#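 Assay format: 96-well plates, 48-hour exposure. GI50 marks 50% less growth. At the TGI there is no net growth.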
# Legend:
# Assay in all cases: DTP human tumour cell line panel, 48 h
# [1] = system: NCI-H226 lung
# [2] = system: SNB-19 CNS
# [3] = system: LOX IMVI melanoma
# [4] = system: OVCAR-8 ovarian
# [5] = system: UACC-257 melanoma
# [6] = system: SK-MEL-2 melanoma
# [7] = system: UACC-62 melanoma
# [8] = system: SF-268 CNS
# [9] = system: RXF 393 renal
# [10] = system: CCRF-CEM leukemia
# [11] = system: OVCAR-3 ovarian
# [12] = system: EKVX NSCLC
# [13] = system: MCF7 breast
# [14] = system: SK-MEL-28 melanoma
# [15] = system: NCI-H522 lung
# [16] = system: HOP-62 NSCLC
# [17] = system: SW-620 colon
# [18] = system: OVCAR-5 ovarian
# [19] = system: NCI/ADR-RES ovarian
# [20] = system: IGROV1 ovarian
# [21] = system: MOLT-4 leukemia
# [22] = system: SR leukemia
# [23] = system: DU-145 prostate
# [24] = system: HCT-116 colon
# [25] = system: HL-60(TB) leukemia
# [26] = system: 786-0 renal
# [27] = system: MDA-MB-435
# [28] = system: UO-31 renal
smiles,measurement,setting,value
Clc1ccc(C(Cn2ccnc2)OCc2ccsc2Cl)c(Cl)c1 (centres undefined),GI50,[1],5.62 µM
same,TGI,[1],30.7 µM
same,GI50,[2],5.41 µM
same,TGI,[2],20.6 µM
same,GI50,[3],2.51 µM
same,GI50,[4],3.05 µM
same,TGI,[4],14.3 µM
same,GI50,[5],3.01 µM
same,TGI,[5],11.8 µM
same,GI50,[6],2.4 µM
same,TGI,[6],5.67 µM
same,GI50,[7],3.72 µM
same,TGI,[7],14.3 µM
same,GI50,[8],4.73 µM
same,TGI,[8],30 µM
same,GI50,[9],3.17 µM
same,TGI,[9],12.8 µM
same,GI50,[10],2.4 µM
same,TGI,[10],7.74 µM
same,GI50,[11],5.11 µM
same,TGI,[11],16.4 µM
same,GI50,[12],2.51 µM
same,TGI,[12],13.4 µM
same,GI50,[13],3.24 µM
same,TGI,[13],14.4 µM
same,GI50,[14],4.18 µM
same,TGI,[14],15.3 µM
same,GI50,[15],2.7 µM
same,TGI,[15],9.52 µM
same,GI50,[16],4.92 µM
same,TGI,[16],16.9 µM
same,GI50,[17],3.27 µM
same,TGI,[17],12.3 µM
same,GI50,[18],4.91 µM
same,TGI,[18],18.2 µM
same,GI50,[19],1.91 µM
same,TGI,[19],5.71 µM
same,GI50,[20],3.15 µM
same,TGI,[20],14 µM
same,GI50,[21],2.4 µM
same,TGI,[21],10.5 µM
same,GI50,[22],2.28 µM
same,TGI,[22],7.62 µM
same,GI50,[23],7.69 µM
same,TGI,[23],20.6 µM
same,GI50,[24],2.84 µM
same,TGI,[24],10.6 µM
same,GI50,[25],1.82 µM
same,TGI,[25],4.96 µM
same,GI50,[26],2.97 µM
same,TGI,[26],9.89 µM
same,GI50,[27],2.16 µM
same,TGI,[27],5.59 µM
same,GI50,[28],2.81 µM

# Source: PubChem BioAssay (NCI)
